Assay results reported in patent US5948814A, “Genistein for the treatment of cystic fibrosis” (priority 1998, dated 1999).
Where “and” joins values, the source holds several entries; their conditions need not be identical. Equal entries are not always repeated. Entries after “also recorded” stand apart in the source; their conditions may differ.

How the values were obtained:
wt-CFTR [1] = experiment: Patch clamp, cell-attached patches, Calu-3 cells; format: cell-based, human; conditions: 50 μM genistein on forskolin, n=15
Description: (§1) Downward deflections represent channel opening.

ΔF508-CFTR [2] = target: T1, ΔF508-CFTR (Homo sapiens, UniProt P13569, DEL508-508); experiment: Patch clamp, cell-attached patches, macroscopic current, NIH/3T3-ΔF508 cells
T1 sequence (P13569 with tags, fused parts or gaps DEL508-508): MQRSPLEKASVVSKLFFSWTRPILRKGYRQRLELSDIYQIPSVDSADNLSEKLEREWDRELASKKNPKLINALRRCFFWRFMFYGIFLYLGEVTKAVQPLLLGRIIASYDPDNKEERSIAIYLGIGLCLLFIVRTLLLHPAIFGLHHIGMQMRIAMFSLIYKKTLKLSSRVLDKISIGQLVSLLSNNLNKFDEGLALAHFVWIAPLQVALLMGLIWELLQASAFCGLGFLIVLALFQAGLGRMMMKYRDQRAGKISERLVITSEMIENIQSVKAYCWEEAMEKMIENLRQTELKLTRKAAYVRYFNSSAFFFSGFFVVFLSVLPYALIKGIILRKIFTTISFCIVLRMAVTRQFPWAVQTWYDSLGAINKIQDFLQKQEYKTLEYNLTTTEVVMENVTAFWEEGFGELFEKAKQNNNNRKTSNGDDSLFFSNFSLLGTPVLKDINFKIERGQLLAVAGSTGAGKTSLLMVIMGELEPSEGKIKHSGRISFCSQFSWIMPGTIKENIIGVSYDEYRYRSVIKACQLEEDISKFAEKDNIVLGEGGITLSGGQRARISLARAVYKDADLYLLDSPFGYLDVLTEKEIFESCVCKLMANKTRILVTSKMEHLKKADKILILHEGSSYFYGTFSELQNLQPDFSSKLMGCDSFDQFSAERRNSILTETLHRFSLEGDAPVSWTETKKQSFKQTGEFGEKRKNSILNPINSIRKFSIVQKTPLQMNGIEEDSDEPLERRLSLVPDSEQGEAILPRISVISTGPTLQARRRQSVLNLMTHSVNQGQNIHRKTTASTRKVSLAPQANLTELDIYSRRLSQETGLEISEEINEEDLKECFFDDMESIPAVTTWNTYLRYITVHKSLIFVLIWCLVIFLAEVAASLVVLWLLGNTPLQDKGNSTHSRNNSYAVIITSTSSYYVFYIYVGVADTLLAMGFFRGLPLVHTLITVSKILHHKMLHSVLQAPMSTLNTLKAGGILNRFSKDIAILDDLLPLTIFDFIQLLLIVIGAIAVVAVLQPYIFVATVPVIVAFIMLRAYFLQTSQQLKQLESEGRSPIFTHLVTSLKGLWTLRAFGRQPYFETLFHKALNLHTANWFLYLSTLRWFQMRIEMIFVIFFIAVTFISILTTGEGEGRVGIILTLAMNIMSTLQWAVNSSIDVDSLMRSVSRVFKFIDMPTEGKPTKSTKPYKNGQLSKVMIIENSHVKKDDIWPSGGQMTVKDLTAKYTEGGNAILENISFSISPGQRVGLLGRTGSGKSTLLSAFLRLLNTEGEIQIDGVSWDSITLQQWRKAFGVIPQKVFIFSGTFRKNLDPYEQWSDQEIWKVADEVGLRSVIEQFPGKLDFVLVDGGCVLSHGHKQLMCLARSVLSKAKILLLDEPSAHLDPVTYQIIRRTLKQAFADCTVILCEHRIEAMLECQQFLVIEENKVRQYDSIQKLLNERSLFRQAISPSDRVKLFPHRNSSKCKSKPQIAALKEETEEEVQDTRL
Protocol: FIGS. 3A and B show recordings of the potentiation of wild-type (wt) and ΔF508-CFTR channel activity by genistein. Channels in cell-attached patches from NIH/3T3-CFTR (FIG. 3A) and NIH/3T3-ΔF508cells (FIG. 3B), were stimulated as indicated with 10 μM forskolin and 50μ genestein.
(§2) Cell culture: NIH/3T3-CFTR, NIH/3T3-ΔF508, and NIH/3T3 mock cells (generous gifts from Dr. Richard Mulligan of Children's Hospital and Medical Center, Harvard Medical School) were grown as described [Bradbury et al., 1992] at 37° C. and 5% CO2 in Dulbecco's modified Eagle's medium-H21 supplemented with 10% new-born calf serum, 4 mM glutamine, 25 mM glucose, 100 μg/ml penicillin, 100 μg/ml streptomycin, and 50 μg/ml gentamicin. Cells were maintained in T75 flasks, passaged at 90-95% confluency, and split one to four. For measurements of I^- efflux and in vivo phosphorylation, cells were seeded onto 35-mm dishes at […]. For patch-clamp experiments, cells were grown on coverglass chips in 35-mm culture dishes. Media were replaced 24 hours after plating and thereafter every 48 hours. In all cases, media were changed on the day before I^- efflux studies, NIH/3T3-ΔF508 cells were transferred to 27° C. three days before use, and 1 day prior to study, media were supplemented with 5 mM butyrate. For patch-clamp studies, where a constant level of functional ΔF508-CFTR was not essential, NIH/3T3-ΔF508 cells were cultured at 27° C. for 2-6 days before use. Calu-3 cells were grown and maintained as described by Hunter [1995].
Electrophysiology: CFTR channel currents were recorded at room temperature (~22° C.) with a patch-clamp amplifier (EPC-9, Heka Electronic), filtered at 100 Hz with a built-in three-pole Bessel filter, and stored on videotapes. Data were subsequently refiltered at 25 Hz with an eight-pole Bessel filter (Frequency Device, Havervill, Mass.) and captured onto a hard disk at a sampling rate of 50 Hz. […] Patch-clamp electrodes were made from Corning 7052 glass capillaries (Warner Instrument, Hammed, Conn.). The pipette resistance was usually 3-5 M.OMEGA., and the seal resistance was >20 G.OMEGA.. The pipette solution contained (in mM) 140 N-methyl-D-glucamine chloride (NMDG-C1), 2 MgCl2, 5Ca Cl2, and 10 HEPES (pH 7.4 with NMDG). The superfusion solution contained (in mM) 150 […], 2 MgCl2, 1 EGTA, 5 glucose, and 5 HEPES (pH 7.4 with NaOH). […]
Statistics: Mean currents and variance were estimated with Igor (Wavemetrics, Lake Oswego, Oreg.). […] Po was calculated from patches containing a single channel by dividing the open channel current amplitude with the mean-current amplitude. […] Calculated values are presented as means±SE. […]

[3] = test system: cAMP levels or PKA activity; conditions: cited from earlier work
[4] = test system: mock-transfected NIH/3T3 cells; experiment: I- efflux, mock-transfected NIH/3T3 cells; format: cell-based
Protocol: as §2
I^- efflux: I^- efflux was measured as described previously [Reenstra et al., 1996]. Briefly, cells were incubated for 30 minutes with 37° C. I^- efflux buffer [(in mM) 141 NaCl, 4 KCl, 1 KH2 PO4, 0.9 MgCl2, 1.7 CaCl2. […] Extracellular ^125 I^- was removed by washing four times with efflux buffer, and the rate of loss of intracellular ^125 I^- was determined by replacing the bathing solution with 37° C. efflux buffer every 60 seconds for 12 minutes. Time-dependent rates of ^125 I^- efflux are calculated from R=ln(^125 I^-t1 /^125 I^-t2)/(t1-t2), where ^125 I^-t is the intracellular ^125 I^- at time t and t1 and t2 are successive time points. […]
To investigate effects of genistein on CFTR activity, the rates of I^- efflux were measured from stably transfected NIH/3T3 cells expressing wt- and ΔF508-CFTR (NIH/33-CFTR and NIH/3T3-ΔF508 cells, respectively). […]

tyrosine kinases = conditions: cited from earlier work
protein phosphatase = conditions: cited from earlier work
ΔF508-CFTR [5] = target: T1, ΔF508-CFTR; experiment: Other protein tyrosine kinase inhibitors, activation of ΔF508-CFTR; format: cell-based; design: expressed in transfected cells; host or cells: NIH/3T3 cells, stably transfected (NIH/3T3-ΔF508, gift of Dr. Richard Mulligan)
wt-CFTR [6] = target: wt-CFTR (Homo sapiens, UniProt P13569); format: cell-based; design: expressed in transfected cells; conditions: 50 μM genistein on forskolin; HEK293; n=10
wt-CFTR (Homo sapiens, UniProt P13569), sequence (P13569 whole entry): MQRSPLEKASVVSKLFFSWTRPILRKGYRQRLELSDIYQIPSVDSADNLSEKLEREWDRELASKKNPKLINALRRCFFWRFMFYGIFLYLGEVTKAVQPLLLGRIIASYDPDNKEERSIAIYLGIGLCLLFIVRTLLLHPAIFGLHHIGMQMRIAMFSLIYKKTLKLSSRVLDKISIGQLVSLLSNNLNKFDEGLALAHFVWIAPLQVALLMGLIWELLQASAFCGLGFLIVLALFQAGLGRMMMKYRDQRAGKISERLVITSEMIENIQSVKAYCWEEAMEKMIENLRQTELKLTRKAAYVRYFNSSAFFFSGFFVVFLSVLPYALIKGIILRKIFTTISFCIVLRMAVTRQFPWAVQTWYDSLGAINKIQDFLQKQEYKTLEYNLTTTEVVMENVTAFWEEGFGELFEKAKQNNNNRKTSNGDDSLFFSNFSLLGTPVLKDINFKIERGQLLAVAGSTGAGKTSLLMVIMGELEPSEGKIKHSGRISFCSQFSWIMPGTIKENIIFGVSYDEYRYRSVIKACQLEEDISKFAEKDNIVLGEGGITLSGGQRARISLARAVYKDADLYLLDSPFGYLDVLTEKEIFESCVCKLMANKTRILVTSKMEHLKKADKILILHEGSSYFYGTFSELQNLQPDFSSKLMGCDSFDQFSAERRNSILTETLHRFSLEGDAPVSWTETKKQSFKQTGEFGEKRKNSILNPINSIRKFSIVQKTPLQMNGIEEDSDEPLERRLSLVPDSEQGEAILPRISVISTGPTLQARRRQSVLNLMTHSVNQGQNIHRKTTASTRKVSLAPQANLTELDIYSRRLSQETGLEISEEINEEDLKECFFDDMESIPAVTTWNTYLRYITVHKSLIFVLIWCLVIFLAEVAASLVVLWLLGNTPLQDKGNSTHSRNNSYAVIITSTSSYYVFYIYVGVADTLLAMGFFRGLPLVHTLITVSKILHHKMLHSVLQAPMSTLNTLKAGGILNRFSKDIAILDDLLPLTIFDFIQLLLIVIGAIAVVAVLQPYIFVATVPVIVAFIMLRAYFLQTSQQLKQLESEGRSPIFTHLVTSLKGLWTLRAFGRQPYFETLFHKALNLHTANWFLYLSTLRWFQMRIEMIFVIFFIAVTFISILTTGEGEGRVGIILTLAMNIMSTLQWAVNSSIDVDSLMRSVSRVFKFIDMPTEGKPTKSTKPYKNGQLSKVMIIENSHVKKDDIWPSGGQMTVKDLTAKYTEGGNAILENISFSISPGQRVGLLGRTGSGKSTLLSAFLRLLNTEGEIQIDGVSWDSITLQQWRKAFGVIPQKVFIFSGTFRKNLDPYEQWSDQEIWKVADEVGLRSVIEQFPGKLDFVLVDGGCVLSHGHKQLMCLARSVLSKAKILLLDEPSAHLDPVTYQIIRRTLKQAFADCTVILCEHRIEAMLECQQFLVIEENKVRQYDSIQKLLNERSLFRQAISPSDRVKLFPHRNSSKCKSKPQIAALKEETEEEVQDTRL
Description: Transient expression of wt-CFTR in HEK293 cells: The pRBG4 vector containing wt-CFTR cDNA is a generous gift from Drs. Kevin Gunderson and Ron Kopito of Stanford University. HEK293 cells were transfected with the calcium phosphate method as described previously [Gunderson et al., 1994].
as §1

| Structure (SMILES) | average increase in mean-current amplitude by genistein (wt-CFTR [1]) | patches showing channel activity (ΔF508-CFTR [2]; 10 μM forskolin plus 50 μM genistein, cells grown at 37° C.) | average increase in mean-current amplitude by genistein (ΔF508-CFTR [2]; 50 μM genistein on 10 μM forskolin, cells cultured at 27° C., 23 patches, 50 µM) | patches responding (ΔF508-CFTR [2]; forskolin plus genistein, cells grown at 27° C., 44 of 82) | effect on cAMP levels or PKA activity [3] | stimulation of I- efflux in mock cells ([4]; 50 μM genistein) | stimulation of I- efflux in mock cells ([4]; 50 μM genistein plus 1 μM forskolin) | inhibition of tyrosine kinases (tyrosine kinases) | inhibition of protein phosphatase (protein phosphatase) | ΔF508-CFTR stimulation activity among protein tyrosine kinase inhibitors (ΔF508-CFTR [5]) | average increase in mean-current amplitude by genistein (wt-CFTR [6]) | stimulation of I- efflux in mock cells ([4]; 1 μM forskolin) |
| --- | --- | --- | --- | --- | --- | --- | --- | --- | --- | --- | --- | --- |
| O=c1c(-c2ccc(O)cc2)coc2cc(O)cc(O)c12 [Genistein, 4',5,7-trihydroxyisoflavone] | 3.1±0.3 fold | Approximately 10% | 18.6±2.2 fold and 19 fold | 54% | does not increase cAMP levels or PKA activity; also recorded: does not alter cellular cAMP levels or PKA activity | neither 1 μM forskolin, 50 μM genistein, nor 50 μM genistein plus 1 μM forskolin stimulated | neither 1 μM forskolin, 50 μM genistein, nor 50 μM genistein plus 1 μM forskolin stimulated | inhibits | no protein phosphatase has been shown to be inhibited by genistein | is the only protein tyrosine kinase inhibitor that has such an effect | 3.1±0.7 fold | – |
| C=C[C@@]1(C)CC(=O)[C@]2(O)[C@@]3(C)[C@@H](O)CCC(C)(C)[C@@H]3[C@H](O)[C@H](OC(C)=O)[C@@]2(C)O1 [forskolin] | – | – | – | – | – | – | – | – | – | – | – | neither 1 μM forskolin, 50 μM genistein, nor 50 μM genistein plus 1 μM forskolin stimulated |
